Converted amounts (≈) assume the structure as drawn.
How the values were obtained:
[1] = Solubility in phosphate buffer; type: physicochemical; details: pH 7.4, aqueous buffer
Description: TABLE 1 In vitro potency and selectivity of JAK inhibitors | column: Solubility (μM) ^c

[2] = target: T1, JAK3 (Homo sapiens, UniProt P52333); assay: JAK3 kinase inhibition, Calliper assay; type: biochemical; details: physiological ATP concentration of 5 mM
T1 sequence (P52333 1-1124): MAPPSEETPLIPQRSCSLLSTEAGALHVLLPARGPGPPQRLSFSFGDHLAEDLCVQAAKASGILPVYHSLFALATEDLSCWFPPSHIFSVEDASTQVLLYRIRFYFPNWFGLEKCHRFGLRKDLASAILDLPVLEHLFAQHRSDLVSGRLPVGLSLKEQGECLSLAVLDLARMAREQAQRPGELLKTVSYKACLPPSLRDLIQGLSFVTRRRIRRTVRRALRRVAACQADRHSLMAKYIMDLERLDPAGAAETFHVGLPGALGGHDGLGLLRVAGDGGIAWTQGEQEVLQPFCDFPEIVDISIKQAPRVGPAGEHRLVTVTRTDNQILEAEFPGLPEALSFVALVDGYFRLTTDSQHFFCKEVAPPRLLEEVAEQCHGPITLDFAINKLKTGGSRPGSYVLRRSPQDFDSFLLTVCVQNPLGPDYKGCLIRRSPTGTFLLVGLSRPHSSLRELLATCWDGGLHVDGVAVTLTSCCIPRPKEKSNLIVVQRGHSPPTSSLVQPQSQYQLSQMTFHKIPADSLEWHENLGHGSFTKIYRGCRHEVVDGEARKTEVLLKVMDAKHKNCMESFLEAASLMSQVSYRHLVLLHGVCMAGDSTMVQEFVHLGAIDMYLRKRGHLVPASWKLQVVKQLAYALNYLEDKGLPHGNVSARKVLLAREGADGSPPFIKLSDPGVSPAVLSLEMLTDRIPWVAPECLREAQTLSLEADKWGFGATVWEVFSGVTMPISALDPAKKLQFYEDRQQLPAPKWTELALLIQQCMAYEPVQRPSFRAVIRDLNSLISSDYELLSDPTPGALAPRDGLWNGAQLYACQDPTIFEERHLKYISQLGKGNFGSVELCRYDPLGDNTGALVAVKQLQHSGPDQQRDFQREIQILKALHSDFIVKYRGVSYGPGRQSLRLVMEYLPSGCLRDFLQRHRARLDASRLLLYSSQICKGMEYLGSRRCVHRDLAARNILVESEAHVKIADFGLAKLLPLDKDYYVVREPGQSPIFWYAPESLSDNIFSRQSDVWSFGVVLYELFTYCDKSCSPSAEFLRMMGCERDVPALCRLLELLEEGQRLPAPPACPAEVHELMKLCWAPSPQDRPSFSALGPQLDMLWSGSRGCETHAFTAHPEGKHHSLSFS

[3] = Basic pKa; type: physicochemical; details: read-out: Basic pKa's
Description: TABLE 2 In vitro and in vivo DMPK properties of Cmpd A, B & C | column: In vitro mouse & physical chemical properties / Basic pKa's

[4] = target: JAK1 (Homo sapiens, UniProt P23458); assay: JAK1 kinase inhibition, Calliper assay; type: biochemical; details: physiological ATP concentration of 5 mM
Chain of JAK1 (P23458 whole entry, species assumed): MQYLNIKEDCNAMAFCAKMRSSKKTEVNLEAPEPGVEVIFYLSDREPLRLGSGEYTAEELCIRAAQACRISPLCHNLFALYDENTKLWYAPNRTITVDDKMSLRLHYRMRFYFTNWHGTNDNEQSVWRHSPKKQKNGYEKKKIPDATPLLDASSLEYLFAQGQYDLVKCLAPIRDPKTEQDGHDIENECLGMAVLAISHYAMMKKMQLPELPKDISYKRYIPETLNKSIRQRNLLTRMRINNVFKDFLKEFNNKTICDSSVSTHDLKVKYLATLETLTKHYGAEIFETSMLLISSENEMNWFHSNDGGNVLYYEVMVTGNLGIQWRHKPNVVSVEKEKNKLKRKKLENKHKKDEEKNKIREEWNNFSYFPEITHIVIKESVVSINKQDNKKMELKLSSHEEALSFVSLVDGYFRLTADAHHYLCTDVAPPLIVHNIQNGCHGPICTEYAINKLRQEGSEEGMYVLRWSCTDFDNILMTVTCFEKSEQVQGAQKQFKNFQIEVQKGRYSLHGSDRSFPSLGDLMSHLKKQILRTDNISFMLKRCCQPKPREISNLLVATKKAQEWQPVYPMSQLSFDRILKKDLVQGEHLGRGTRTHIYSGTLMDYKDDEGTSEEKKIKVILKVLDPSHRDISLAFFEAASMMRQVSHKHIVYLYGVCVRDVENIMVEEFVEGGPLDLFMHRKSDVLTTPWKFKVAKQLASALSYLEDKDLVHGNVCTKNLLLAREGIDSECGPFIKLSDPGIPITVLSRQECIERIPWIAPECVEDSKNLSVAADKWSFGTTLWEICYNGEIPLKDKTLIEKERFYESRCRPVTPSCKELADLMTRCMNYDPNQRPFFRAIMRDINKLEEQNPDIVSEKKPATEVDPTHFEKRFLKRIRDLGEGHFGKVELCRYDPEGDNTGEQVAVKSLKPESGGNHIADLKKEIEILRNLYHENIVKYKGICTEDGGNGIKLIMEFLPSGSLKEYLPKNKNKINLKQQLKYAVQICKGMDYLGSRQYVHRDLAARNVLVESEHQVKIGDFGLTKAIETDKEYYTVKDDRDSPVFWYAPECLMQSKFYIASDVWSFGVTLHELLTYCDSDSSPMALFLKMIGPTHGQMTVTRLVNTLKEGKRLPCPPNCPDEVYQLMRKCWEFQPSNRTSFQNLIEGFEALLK

[5] = Unbound fraction in tissue from rearranged Gillette equation; type: in vitro ADME, mouse; details: for f u, tissue: mouse, from rearranged Gillette equation, V blood 0.07 L/kg, V tissue 0.6 L/kg
Description: (§1) Detailed description in Supplementary materials.

[6] = Plasma protein binding by equilibrium dialysis; type: in vitro ADME; details: mouse plasma
Description: as §1

[7] = system: IL‐4, STAT6‐Luc; assay: IL-4-induced JAK-STAT6-luciferase assay in U937 monocytes; type: cell-based; details: Homo sapiens, U-937, interleukin at EC80
[8] = Mouse pharmacokinetics i.v./p.o.; type: in vivo; details: plasma, male C57Bl6 mice; for clearance / Vd: iv, i.v. 0.5-1.0 mg/kg; for Vd: read-out: V ss; for bioavailability: po, p.o. 300 (A), 1.0 (B), 2.0 (C) mg/kg, read-out: Oral % F
Experimental: as §1
Pharmacokinetics and evaluation of compound exposures: Male C57/BL mice were obtained from Si Bei Fu and weighed approximately 20-30 grams (7-9 weeks) at the start of the pharmacokinetic study. Animals had free access to food and water during the course of the experiment. Dose formulations were prepared on the study day and were stirred at room temperature for at least 15 minutes prior dosing and during the administration event. Cmpd A, B and C were dosed at 0.5-1 mg/kg i.v. and 1-300 mg/kg p.o. The dorsal metatarsal vein was used for sampling and typically 0.02 mL blood was withdrawn. Blood was taken at 2, 5, 15, 45 min, 2, 4, 8, 24 hours post the i.v. dose and at 15, 30 min, 1, 2, 4, 8, 24 hours post the p.o. dose. Blood of each sample was transferred into plastic micro centrifuge tubes containing 2 μL of 1000 IU Heparin-Na anticoagulant. These tubes were then inverted several times and placed on wet ice prior to centrifugation at 10,000 rpm for 2 minutes at 4°C in order to collect plasma. Plasma samples were stored at -75±15°C prior analysis. Compound concentrations were analyzed using a LC-MS/MS method (see below).
Effective T1/2 equals Ln2 x Vss/CL.

[9] = LogD7.4; type: physicochemical; details: pH 7.4
Description: TABLE 2 In vitro and in vivo DMPK properties of Cmpd A, B & C | column: In vitro mouse & physical chemical properties / LogD7.4

[10] = Caco permeability and efflux; type: in vitro ADME; details: human, Caco-2; for efflux ratio: Efflux ratio = BtA/AtB; for Papp A→B: read-out: Caco AtB
Description: TABLE 2 In vitro and in vivo DMPK properties of Cmpd A, B & C | column: In vitro mouse & physical chemical properties / Caco AtB 10^−6 cm/s/Efflux ratio ^b

Row | solubility [1] | IC50 [2] | pKa [3] | IC50 [4] | f u, tissue [5] | unbound fraction in plasma compared to skin ([5]; skin value estimated from the Gillette equation) | f u, plasma [6] | IC50 [7] | clearance [8] | Vd [8] | bioavailability [8] | logD [9] | efflux ratio [10] | Papp A→B [10] | Structure (SMILES)
1 | > 337 µM | > 30 µM | 7.9 | 27 nM | 0.003 | ~10 fold | 0.038 | 84 nM | 32 mL/min/kg | 9.1 L/kg | 100% | 2.9 | 1 | 21 ×10⁻⁶ cm/s | Cc1cnc(Nc2cccnc2F)nc1-c1c[nH]c2c(NC(=O)[C@@H](C)N3CCN(C)CC3)cccc12 [Cmpd A]
2 | > 955 µM | > 30 µM | 8.6 | 9.3 nM | 0.063 |  | 0.74 | 110 nM | 38 mL/min/kg | 8.4 L/kg | 16% | 1.5 | 14 | 0.3 ×10⁻⁶ cm/s | Cc1cnc(Nc2cc(N3C[C@@H]4C[C@H]3CN4C)cnc2F)nc1N[C@H](C)[C@H](C)CO [Cmpd B, (2S,3R)-3-{[2-({2-fluoro-5-[(1S,4S)-5-methyl-2,5-diazabicyclo[2.2.1]heptan-2-yl]pyridin-3-yl}amino)-5-methylpyrimidin-4-yl]amino}-2-methylbutan-1-ol]
3 | 6.6 µM (≈ 3.96 µg/mL) | > 30 µM | 7.9 | < 3 nM | 0.011 |  | 0.11 | 24 nM | 26 mL/min/kg | 6.9 L/kg | 86% | 2.6 |  | 6.7 ×10⁻⁶ cm/s | COCC(C(=O)Nc1cccc2c(-c3nc(Nc4cccc(S(C)(=O)=O)c4F)ncc3F)c[nH]c12)N1CCN(C)CC1 (stereo not drawn) [Cmpd C]

— paper PMC10233092, “Selective Janus kinase 1 inhibition resolves inflammation and restores hair growth offering a viable treatment option for alopecia areata” (Skin Health and Disease, 2023)
